Source: publication PMC6445160, “Naphthoquinone amino acid derivatives, synthesis and biological activity as proteasome inhibitors” (Journal of Enzyme Inhibition and Medicinal Chemistry, 2017)
Where two headings read alike, the source gives them in different places.

What was measured:
Test in all cases: fluorogenic AMC peptide hydrolysis
Format in all cases: biochemical
[1] = system: T1, 20S proteasome β5 subunit, chymotrypsin-like (ChT-L) activity; details: Suc-LLVY-AMC, 37 °C, 30 min, enzyme pretreated with compound; read-out: IC50 (μm)^aChT-L
T1 construct: gene PSMB5; native 20S proteasome purified from lymphoblastoid cells
Description: fluorogenic AMC peptide hydrolysis on 20S proteasome β5 subunit, chymotrypsin-like (ChT-L) activity

[2] = system: T1, 20S proteasome β5 subunit, chymotrypsin-like (ChT-L) activity; details: Suc-LLVY-AMC, 37 °C, 30 min, enzyme pretreated with compound
[3] = system: T2, 20S proteasome β2 subunit, trypsin-like (T-L) activity; details: Boc-LRR-AMC, 37 °C, 30 min, enzyme pretreated with compound
T2 construct: gene PSMB7; native 20S proteasome purified from lymphoblastoid cells
Description: fluorogenic AMC peptide hydrolysis on 20S proteasome β2 subunit, trypsin-like (T-L) activity

Compound	IC50 [1]	IC50 [2]	IC50 [3]
CC(C)C[C@H](NC(=O)c1ccccc1)C(=O)NCCCCNC1=C(Cl)C(=O)c2ccccc2C1=O [compound 19, Bz-Leu-NH-(CH2)4-NH-ClNafQ]	10.1 ± 0.7 µM		
O=C(N[C@@H](CO)C(=O)NCCNC1=C(Cl)C(=O)c2ccccc2C1=O)c1ccccc1 [compound 15, Bz-Ser-NH-(CH2)2-NH-ClNafQ]	24.1 ± 1.98 µM		53.8 ± 4.88 µM
O=C1C(Cl)=C(NCCNC(=O)[C@H](CO)NC(=O)c2cccc3ccccc23)C(=O)c2ccccc21 [compound 16, 1-NaftCO-Ser-NH-(CH2)2-NH-ClNafQ]		> 100 µM	> 100 µM
NC(=O)CC(NC(=O)c1ccc([N+](=O)[O-])cc1)C(=O)NCCCCNC1=C(Cl)C(=O)c2ccccc2C1=O (stereo not drawn) [compound 22, NBz-Asn-NH-(CH2)4-NH-ClNafQ]	28.5 ± 3.05 µM		
O=C(N[C@@H](Cc1ccccc1)C(=O)NCCNC1=C(Cl)C(=O)c2ccccc2C1=O)c1ccc([N+](=O)[O-])cc1 [compound 10, NBz-Phe-NH-(CH2)2-NH-ClNafQ]	0.77 ± 0.06 µM		35.4 ± 2.91 µM
NBz-Leu-NH-(CH2)4-NH-ClNafQ [compound 18]	8.4 ± 0.72 µM		
O=C(NC(CO)C(=O)NCCNC1=C(Cl)C(=O)c2ccccc2C1=O)c1ccc([N+](=O)[O-])cc1 (stereo not drawn) [compound 14, NBz-Ser-NH-(CH2)2-NH-ClNafQ]	83.5 ± 8.03 µM		63.4 ± 7.01 µM
CC(C)C[C@H](NC(=O)c1cccc2ccccc12)C(=O)NCCNC1=C(Cl)C(=O)c2ccccc2C1=O [compound 4, 1-NaftCO-Leu-NH-(CH2)2-NH-ClNafQ]	0.82 ± 0.08 µM		21.1 ± 1.85 µM
O=C(N[C@@H](Cc1ccccc1)C(=O)NCCNC1=C(Cl)C(=O)c2ccccc2C1=O)c1ccccc1 [compound 11, Bz-Phe-NH-(CH2)2-NH-ClNafQ]	6.22 ± 0.48 µM		53.2 ± 6.7 µM
Cc1c(O)cccc1C(=O)N[C@@H](CC(C)C)C(=O)NCCNC1=C(Cl)C(=O)c2ccccc2C1=O [compound 1, HMB-Leu-NH-(CH2)2-NH-ClNafQ]	> 100 µM		77.4 ± 6.51 µM
O=C1C(Cl)=C(NCCNC(=O)[C@H](Cc2ccccc2)NC(=O)c2cccc3ccccc23)C(=O)c2ccccc21 [compound 12, 1-NaftCO-Phe-NH-(CH2)2-NH-ClNafQ]	9.14 ± 1.02 µM		49.8 ± 3.97 µM
Cc1c(O)cccc1C(=O)N[C@@H](Cc1ccccc1)C(=O)NCCNC1=C(Cl)C(=O)c2ccccc2C1=O [compound 9, HMB-Phe-NH-(CH2)2-NH-ClNafQ]	0.85 ± 0.07 µM		> 100 µM
CC(C)C[C@H](NC(=O)c1ccccc1)C(=O)NCCNC1=C(Cl)C(=O)c2ccccc2C1=O [compound 3, Bz-Leu-NH-(CH2)2-NH-ClNafQ]	> 100 µM		58.4 ± 5.13 µM
Cc1c(O)cccc1C(=O)N[C@@H](CO)C(=O)NCCNC1=C(Cl)C(=O)c2ccccc2C1=O [compound 13, HMB-Ser-NH-(CH2)2-NH-ClNafQ]		> 100 µM	> 100 µM
Cc1c(O)cccc1C(=O)N[C@@H](CC(C)C)C(=O)NCCCCNC1=C(Cl)C(=O)c2ccccc2C1=O [compound 17, HMB-Leu-NH-(CH2)4-NH-ClNafQ]	11.5 ± 1.02 µM		> 100 µM
Cc1c(O)cccc1C(=O)N[C@@H](CC(N)=O)C(=O)NCCNC1=C(Cl)C(=O)c2ccccc2C1=O [compound 5, HMB-Asn-NH-(CH2)2-NH-ClNafQ]	8.47 ± 0.75 µM		68.4 ± 5.14 µM
CC(C)C[C@H](NC(=O)c1cccc2ccccc12)C(=O)NCCCCNC1=C(Cl)C(=O)c2ccccc2C1=O [compound 20, 1-NaftCO-Leu-NH-(CH2)4-NH-ClNafQ]	49.3 ± 5.02 µM		
NC(=O)C[C@H](NC(=O)c1ccccc1)C(=O)NCCNC1=C(Cl)C(=O)c2ccccc2C1=O [compound 7, Bz-Asn-NH-(CH2)2-NH-ClNafQ]	7.99 ± 0.67 µM		49.7 ± 3.87 µM
CC(C)C[C@H](NC(=O)c1ccc([N+](=O)[O-])cc1)C(=O)NCCNC1=C(Cl)C(=O)c2ccccc2C1=O [compound 2, NBz-Leu-NH-(CH2)2-NH-ClNafQ]	> 100 µM		65.3 ± 5.91 µM
Cc1c(O)cccc1C(=O)N[C@@H](CC(N)=O)C(=O)NCCCCNC1=C(Cl)C(=O)c2ccccc2C1=O [compound 21, HMB-Asn-NH-(CH2)4-NH-ClNafQ]	65.4 ± 6.5 µM		
NC(=O)C[C@H](NC(=O)c1cccc2ccccc12)C(=O)NCCNC1=C(Cl)C(=O)c2ccccc2C1=O [compound 8, 1-NaftCO-Asn-NH-(CH2)2-NH-ClNafQ]	76.2 ± 6.82 µM		35.2 ± 2.77 µM
NC(=O)C[C@H](NC(=O)c1ccc([N+](=O)[O-])cc1)C(=O)NCCNC1=C(Cl)C(=O)c2ccccc2C1=O [compound 6, NBz-Asn-NH-(CH2)2-NH-ClNafQ]	0.92 ± 0.09 µM		17.2 ± 1.09 µM

Second part, the compound after the results:

IC50 [1]	IC50 [2]	IC50 [3]	Compound
	> 100 µM		1-NaftCO-Phe-NH-cHx-NH-ClNafQ [compound 44]
42.1 ± 5.02 µM			NBz-Leu-NH-cHx-NH-ClNafQ [compound 34]
	> 100 µM		1-NaftCO-Asn-NH-cHx-NH-ClNafQ [compound 40]
	> 100 µM		HMB-Ser-NH-cHx-NH-ClNafQ [compound 45]
84.1 ± 6.08 µM			O=C(N[C@@H](CO)C(=O)NCCCCNC1=C(Cl)C(=O)c2ccccc2C1=O)c1ccccc1 [compound 31, Bz-Ser-NH-(CH2)4-NH-ClNafQ]
17.5 ± 1.07 µM			Cc1c(O)cccc1C(=O)N[C@@H](Cc1ccccc1)C(=O)NCCCCNC1=C(Cl)C(=O)c2ccccc2C1=O [compound 25, HMB-Phe-NH-(CH2)4-NH-ClNafQ]
	> 100 µM		NBz-Ser-NH-cHx-NH-ClNafQ [compound 46]
	> 100 µM		HMB-Phe-NH-cHx-NH-ClNafQ [compound 41]
78.3 ± 6.95 µM			NC(=O)C[C@H](NC(=O)c1cccc2ccccc12)C(=O)NCCCCNC1=C(Cl)C(=O)c2ccccc2C1=O [compound 24, 1-NaftCO-Asn-NH-(CH2)4-NH-ClNafQ]
88.7 ± 8.03 µM		83.3 ± 7.21 µM	O=C(NC(CO)C(=O)NCCCCNC1=C(Cl)C(=O)c2ccccc2C1=O)c1ccc([N+](=O)[O-])cc1 (stereo not drawn) [compound 30, NBz-Ser-NH-(CH2)4-NH-ClNafQ]
	> 100 µM		Bz-Asn-NH-cHx-NH-ClNafQ [compound 39]
	> 100 µM		NBz-Asn-NH-cHx-NH-ClNafQ [compound 38]
59.3 ± 6.42 µM			1-NaftCO-Leu-NH-cHx-NH-ClNafQ [compound 36]
9.3 ± 1.02 µM		79.7 ± 6.97 µM	O=C1C(Cl)=C(NCCCCNC(=O)[C@H](Cc2ccccc2)NC(=O)c2cccc3ccccc23)C(=O)c2ccccc21 [compound 28, 1-NaftCO-Phe-NH-(CH2)4-NH-ClNafQ]
10.1 ± 0.7 µM			O=C(N[C@@H](Cc1ccccc1)C(=O)NCCCCNC1=C(Cl)C(=O)c2ccccc2C1=O)c1ccccc1 [compound 27, Bz-Phe-NH-(CH2)4-NH-ClNafQ]
45.7 ± 2.59 µM		80.2 ± 6.91 µM	Cc1c(O)cccc1C(=O)N[C@@H](CO)C(=O)NCCCCNC1=C(Cl)C(=O)c2ccccc2C1=O [compound 29, HMB-Ser-NH-(CH2)4-NH-ClNafQ]
9.1 ± 0.6 µM			O=C(NC(Cc1ccccc1)C(=O)NCCCCNC1=C(Cl)C(=O)c2ccccc2C1=O)c1ccc([N+](=O)[O-])cc1 (stereo not drawn) [compound 26, NBz-Phe-NH-(CH2)4-NH-ClNafQ]
73.3 ± 3.9 µM			Bz-Phe-NH-cHx-NH-ClNafQ [compound 43]
23.1 ± 1.7 µM			Bz-Leu-NH-cHx-NH-ClNafQ [compound 35]
	> 100 µM		1-NaftCO-Ser-NH-cHx-NH-ClNafQ [compound 48]
	> 100 µM		HMB-Leu-NH-cHx-NH-ClNafQ [compound 33]
	> 100 µM		Bz-Ser-NH-cHx-NH-ClNafQ [compound 47]
82.1 ± 6.52 µM			NBz-Phe-NH-cHx-NH-ClNafQ [compound 42]
24.2 ± 2.05 µM			NC(=O)C[C@H](NC(=O)c1ccccc1)C(=O)NCCCCNC1=C(Cl)C(=O)c2ccccc2C1=O [compound 23, Bz-Asn-NH-(CH2)4-NH-ClNafQ]
> 100 µM		60.8 ± 4.88 µM	O=C1C(Cl)=C(NCCCCNC(=O)[C@H](CO)NC(=O)c2cccc3ccccc23)C(=O)c2ccccc21 [compound 32, 1-NaftCO-Ser-NH-(CH2)4-NH-ClNafQ]
	> 100 µM		HMB-Asn-NH-cHx-NH-ClNafQ [compound 37]
